Source: ChEMBL document CHEMBL4229379, “Synthesis and structure-activity relationship of novel bisindole amidines active against MDR Gram-positive and Gram-negative bacteria” (Eur J Med Chem, 2018)
Converted amounts (≈) assume the structure as drawn.

Key:
Enterococcus faecium [1] = assay: Antibacterial activity against vancomycin-resistant Enterococcus faecium ATCC 700221 after 18 hrs by CLSI broth microdilution method; type: functional; settings: ATCC 700221, 18 h
[2] = system: Stenotrophomonas maltophilia; assay: Antibacterial activity against Stenotrophomonas maltophilia ATCC 13636 after 18 hrs by CLSI broth microdilution method; type: functional; settings: ATCC 13636, 18 h
[3] = system: Staphylococcus epidermidis; assay: Antibacterial activity against methicillin-sensitive Staphylococcus epidermidis 12-6 after 18 hrs by CLSI broth microdilution method; type: functional; settings: 12-6, 18 h
Pseudomonas aeruginosa [4] = assay: Antibacterial activity against Pseudomonas aeruginosa 12-16 after 18 hrs by CLSI broth microdilution method; type: functional; settings: 12-16, 18 h
Staphylococcus aureus [5] = assay: Antibacterial activity against methicillin-resistant Staphylococcus aureus ATCC 33591 after 18 hrs by CLSI broth microdilution method; type: functional; settings: ATCC 33591, 18 h
[6] = Cytotoxicity against HEK293T cells assessed as reduction in cell viability after 48 hrs by MTS assay; type: cell-based, HEK-293T; settings: human
Enterococcus faecalis [7] = assay: Antibacterial activity against vancomycin-resistant Enterococcus faecalis 09-9 after 18 hrs by CLSI broth microdilution method; type: functional; settings: 09-9, 18 h
Enterococcus faecalis [8] = assay: Antibacterial activity against vancomycin-sensitive Enterococcus faecalis 12-5 after 18 hrs by CLSI broth microdilution method; type: functional; settings: 12-5, 18 h
Staphylococcus aureus [9] = assay: Potency index, ratio of levofloxacin MIC to compound MIC for methicillin-resistant Staphylococcus aureus 12-33; type: functional
Enterococcus faecalis [10] = assay: Potency index, ratio of levofloxacin MIC to compound MIC for vancomycin-resistant Enterococcus faecalis ATCC 51299; type: functional
Proteus vulgaris = assay: Antibacterial activity against Proteus vulgaris ATCC 29905 after 18 hrs by CLSI broth microdilution method; type: functional; settings: ATCC 29905, 18 h
Klebsiella pneumoniae [11] = assay: Antibacterial activity against extended-spectrum beta-lactamase harboring Klebsiella pneumoniae ATCC 700603 after 18 hrs by CLSI broth microdilution method; type: functional; settings: Klebsiella pneumoniae, 700603, 18 h
Escherichia coli [12] = assay: Antibacterial activity against extended-spectrum beta-lactamase deficient Escherichia coli ATCC 25922 after 18 hrs by CLSI broth microdilution method; type: functional; settings: ATCC 25922, 18 h
Enterococcus faecium [13] = assay: Potency index, ratio of levofloxacin MIC to compound MIC for vancomycin-resistant Enterococcus faecium ATCC 700221; type: functional
Enterococcus faecium [14] = assay: Antibacterial activity against vancomycin-sensitive Enterococcus faecium 12-3 after 18 hrs by CLSI broth microdilution method; type: functional; settings: 12-3, 18 h
Klebsiella pneumoniae [15] = assay: Antibacterial activity against new delhi metallo-beta-lactamase-1 harboring Klebsiella pneumoniae ATCC BAA-2146 after 18 hrs by CLSI broth microdilution method; type: functional; settings: ATCC BAA-2146, 18 h
Enterococcus faecalis [16] = assay: Antibacterial activity against vancomycin-sensitive Enterococcus faecalis ATCC 29212 after 18 hrs by CLSI broth microdilution method; type: functional; settings: ATCC 29212, 18 h
Pseudomonas aeruginosa [17] = assay: Antibacterial activity against Pseudomonas aeruginosa ATCC 27853 after 18 hrs by CLSI broth microdilution method; type: functional; settings: ATCC 27853, 18 h
[18] = system: Staphylococcus epidermidis; assay: Antibacterial activity against methicillin-sensitive Staphylococcus epidermidis ATCC 12228 after 18 hrs by CLSI broth microdilution method; type: functional; settings: ATCC 12228, 18 h
Serratia marcescens = assay: Antibacterial activity against Serratia marcescens ATCC 21074 after 18 hrs by CLSI broth microdilution method; type: functional; settings: ATCC 21074, 18 h
Enterobacter cloacae = assay: Antibacterial activity against Enterobacter cloacae ATCC 43560 after 18 hrs by CLSI broth microdilution method; type: functional; settings: ATCC 43560, 18 h
Enterococcus faecalis [19] = assay: Potency index, ratio of levofloxacin MIC to compound MIC for vancomycin-resistant Enterococcus faecalis 09-9; type: functional
Providencia rettgeri = assay: Antibacterial activity against Providencia rettgeri ATCC 31052 after 18 hrs by CLSI broth microdilution method; type: functional; settings: ATCC 31052, 18 h
Enterococcus faecalis [20] = assay: Antibacterial activity against vancomycin-resistant Enterococcus faecalis ATCC 51299 after 18 hrs by CLSI broth microdilution method; type: functional; settings: ATCC 51299, 18 h
Staphylococcus aureus [21] = assay: Antibacterial activity against methicillin-sensitive Staphylococcus aureus 12-28 after 18 hrs by CLSI broth microdilution method; type: functional; settings: 12-28, 18 h
Staphylococcus aureus [22] = assay: Antibacterial activity against methicillin-sensitive Staphylococcus aureus 15 after 18 hrs by CLSI broth microdilution method; type: functional; settings: Staphylococcus aureus, 15, 18 h
Proteus mirabilis = assay: Antibacterial activity against Proteus mirabilis 12-6 after 18 hrs by CLSI broth microdilution method; type: functional; settings: 12-6, 18 h
Escherichia coli [23] = assay: Antibacterial activity against extended-spectrum beta-lactamase harboring Escherichia coli 12-15 after 18 hrs by CLSI broth microdilution method; type: functional; settings: 12-15, 18 h
Staphylococcus aureus [24] = assay: Antibacterial activity against methicillin-sensitive Staphylococcus aureus ATCC 29213 after 18 hrs by CLSI broth microdilution method; type: functional; settings: ATCC 29213, 18 h
Enterococcus faecium [25] = assay: Antibacterial activity against vancomycin-resistant Enterococcus faecium 12-1 after 18 hrs by CLSI broth microdilution method; type: functional; settings: 12-1, 18 h
Klebsiella pneumoniae [26] = assay: Antibacterial activity against extended-spectrum beta-lactamase deficient Klebsiella pneumoniae 12-4 after 18 hrs by CLSI broth microdilution method; type: functional; settings: 12-4, 18 h
[27] = system: Staphylococcus epidermidis; assay: Antibacterial activity against methicillin-resistant Staphylococcus epidermidis 12-8 after 18 hrs by CLSI broth microdilution method; type: functional; settings: 12-8, 18 h
Pseudomonas aeruginosa [28] = assay: Antibacterial activity against Pseudomonas aeruginosa PAO1 after 18 hrs by CLSI broth microdilution method; type: functional; settings: PAO1, 18 h
Citrobacter freundii = assay: Antibacterial activity against Citrobacter freundii ATCC 43864 after 18 hrs by CLSI broth microdilution method; type: functional; settings: ATCC 43864, 18 h
Staphylococcus aureus [29] = assay: Potency index, ratio of levofloxacin MIC to compound MIC for methicillin-resistant Staphylococcus aureus ATCC 33591; type: functional
Enterococcus faecium [30] = assay: Potency index, ratio of levofloxacin MIC to compound MIC for vancomycin-resistant Enterococcus faecium 12-1; type: functional
Klebsiella aerogenes = assay: Antibacterial activity against Enterobacter aerogenes ATCC 13048 after 18 hrs by CLSI broth microdilution method; type: functional; settings: ATCC 13048, 18 h
[31] = system: Acinetobacter calcoaceticus; assay: Antibacterial activity against Acinetobacter calcoaceticus ATCC 19606 after 18 hrs by CLSI broth microdilution method; type: functional; settings: ATCC 19606, 18 h
Escherichia coli [32] = assay: Antibacterial activity against extended-spectrum beta-lactamase deficient Escherichia coli 12-14 after 18 hrs by CLSI broth microdilution method; type: functional; settings: 12-14, 18 h
Klebsiella pneumoniae [33] = assay: Antibacterial activity against extended-spectrum beta-lactamase harboring Klebsiella pneumoniae 12-8 after 18 hrs by CLSI broth microdilution method; type: functional; settings: 12-8, 18 h
Escherichia coli [34] = assay: Antibacterial activity against extended-spectrum beta-lactamase deficient Escherichia coli 1515 after 18 hrs by CLSI broth microdilution method; type: functional; settings: Escherichia coli, 1515, 18 h
Staphylococcus aureus [35] = assay: Antibacterial activity against methicillin-resistant Staphylococcus aureus 12-33 after 18 hrs by CLSI broth microdilution method; type: functional; settings: 12-33, 18 h
Klebsiella pneumoniae [36] = assay: Antibacterial activity against extended-spectrum beta-lactamase deficient Klebsiella pneumoniae 7 after 18 hrs by CLSI broth microdilution method; type: functional; settings: Klebsiella pneumoniae, 7, 18 h

Compound: N=C(c1ccc2cc(-c3ccc(-c4cc5ccc(C(=N)N6CCC(N7CCCC7)CC6)cc5[nH]4)cc3)[nH]c2c1)N1CCC(N2CCCC2)CC1
- MIC (Enterococcus faecium [1]): 16 µg/mL (≈ 24 µM)
- MIC [2]: 128 µg/mL (≈ 192 µM)
- MIC [3]: 8 µg/mL (≈ 12 µM)
- MIC (Pseudomonas aeruginosa [4]): 128 µg/mL (≈ 192 µM)
- MIC (Staphylococcus aureus [5]): 8 µg/mL (≈ 12 µM)
- CC50 at 48 h [6]: 50 µg/mL (≈ 75 µM)
- MIC (Enterococcus faecalis [7]): 16 µg/mL (≈ 24 µM)
- MIC (Enterococcus faecalis [8]): 64 µg/mL (≈ 96 µM)
- Ratio (Staphylococcus aureus [9]): 4 - 128
- Ratio (Enterococcus faecalis [10]): 4 - 512
- MIC (Proteus vulgaris): 128 µg/mL (≈ 192 µM)
- MIC (Klebsiella pneumoniae [11]): 64 µg/mL (≈ 96 µM)
- MIC (Escherichia coli [12]): 8 µg/mL (≈ 12 µM)
- Ratio (Enterococcus faecium [13]): 4 - 512
- MIC (Enterococcus faecium [14]): 16 µg/mL (≈ 24 µM)
- MIC (Klebsiella pneumoniae [15]): 32 µg/mL (≈ 48 µM)
- MIC (Enterococcus faecalis [16]): 16 µg/mL (≈ 24 µM)
- MIC (Pseudomonas aeruginosa [17]): 16 µg/mL (≈ 24 µM)
- MIC [18]: 4 µg/mL (≈ 6 µM)
- MIC (Serratia marcescens): > 128 µg/mL
- MIC (Enterobacter cloacae): 16 µg/mL (≈ 24 µM)
- Ratio (Enterococcus faecalis [19]): 4 - 512
- MIC (Providencia rettgeri): 128 µg/mL (≈ 192 µM)
- MIC (Enterococcus faecalis [20]): 32 µg/mL (≈ 48 µM)
- MIC (Staphylococcus aureus [21]): 8 µg/mL (≈ 12 µM)
- MIC (Staphylococcus aureus [22]): 8 µg/mL (≈ 12 µM)
- MIC (Proteus mirabilis): > 128 µg/mL
- MIC (Escherichia coli [23]): 16 µg/mL (≈ 24 µM)
- MIC (Staphylococcus aureus [24]): 8 µg/mL (≈ 12 µM)
- MIC (Enterococcus faecium [25]): 16 µg/mL (≈ 24 µM)
- MIC (Klebsiella pneumoniae [26]): 16 µg/mL (≈ 24 µM)
- MIC [27]: 8 µg/mL (≈ 12 µM)
- MIC (Pseudomonas aeruginosa [28]): 128 µg/mL (≈ 192 µM)
- MIC (Citrobacter freundii): 16 µg/mL (≈ 24 µM)
- Ratio (Staphylococcus aureus [29]): 4 - 128
- Ratio (Enterococcus faecium [30]): 4 - 512
- MIC (Klebsiella aerogenes): 16 µg/mL (≈ 24 µM)
- MIC [31]: > 128 µg/mL
- MIC (Escherichia coli [32]): 16 µg/mL (≈ 24 µM)
- MIC (Klebsiella pneumoniae [33]): 16 µg/mL (≈ 24 µM)
- MIC (Escherichia coli [34]): 16 µg/mL (≈ 24 µM)
- MIC (Staphylococcus aureus [35]): 8 µg/mL (≈ 12 µM)
- MIC (Klebsiella pneumoniae [36]): 16 µg/mL (≈ 24 µM)
